The test system of assay [1] is patients with high-risk MF. As to the kind of experiment: Phase 1/2a clinical study in myelofibrosis: MPN-SAF / MPN-10 symptom score. In kind it is in vivo, human. The source says:
In certain embodiments, said patient-reported survey is the Myeloproliferative Neoplasm Symptom Assessment Form (MPN-SAF). The MPN-SAF is a validated clinical assessment form for the most common symptoms of myeloproliferative neoplasms, in which patients self-reports their score, on a scale of 1-10, of various common symptoms, where 1 is the most favorable or the symptom is absent, and 10 is the least favorable or the symptom is the worst imaginable. See, e.g., Scherber R et al., The Myeloproliferative Neoplasm Symptom Assessment Form (MPN-SAF): International Prospective Validation and Reliability Trial in 402 patients,” Blood 118(2):401-08 (2014). Either the full or abbreviated forms may be administered to the patient. In the abbreviated version, a “total symptom score” (TSS) may be calculated from the ten most clinically relevant symptoms from the 17-item MPN-SAF: worst fatigue, concentration, early satiety, inactivity, night sweats, itching, bone pain, abdominal discomfort, weight loss, and fever. The MPN-SAF TSS thus has a possible range of 0 to 100. Quality of life scores are defined as “clinically deficient” when they rate as at least 4 of 10; “moderate” if symptoms are rated as ≥4 of 10 or ≤6 of 10; and “severe” if symptoms are rated as ≥7 of 10. For patients who complete at least six of these 10 items on the BFI and MPN-SAF, the MPN TSS is computed as the average of the observed items multiplied by 10 to achieve a 0-to-100 scale. See, e.g., Emanuel R M et al., “Myeloproliferative neoplasm (MPN) symptom assessment form total symptom score: prospective international assessment of an abbreviated symptom burden scoring system among patients with MPNs,” J Clin Oncol 30(33):4098-103 (2012). […]
The Phase 1/2A portion of the study assessed: the safety of the original starting dose, 0.25 mg/kg/d; an 85-day duration of treatment with a subsequent washout period of up to 28 days; and, pharmacokinetic and drug concentration measurements. […]

Assay [2] deals with patients with myelofibrosis. Kind of assay: All patients (Phase 1/2a and 2b): total symptom score at week 12. The following applies: all patients at Week 12, n=32. In kind it is in vivo, human. Here is the method: A multi-center, open label, dose-range finding study to assess the safety, optimally effective dosing rules, steady-state pharmacokinetics and pharmacodynamics of Compound 1 orally once daily in patients with myelofibrosis was conducted in a Phase 1/2a study. • Primary objectives were to evaluate, in MF patients the effect of Compound 1 on: Safety and tolerability • Pharmacokinetics (Phase 1/2a only) • Reduction in spleen volume
This study initiated as a Phase 1/2a study assessing the safety of the starting dose, an 85 day duration of treatment, and the pharmacokinetic and pharmacodynamic effects of Compound 1, with transition to a Phase 2b study incorporating changes supported by the earlier pharmacokinetic and pharmacodynamic studies and safety assessments. This study consisted of two treatment periods: the Initial Treatment Period (ITP), followed by the Additional Treatment Period (ATP). Patients commenced enrolment in the Phase 2b portion of the study, in which the ITP has been extended such that patients were treated daily for 169 days. The ATP, also extended, offered treatment to qualifying patients for an additional 169 days.
The Myeloproliferative Neoplasm Symptom Assessment Form Total Symptom Score (MPN-SAF TSS) will be completed at Baseline and on each visit day (with the exception of Day 3) from Day 0 through the End of Study (EoS) Visit.

Counter-ions that a name gives are not always drawn.

On to `CN1CCN(C(=O)[C@H](CCCN[C@@H]2C[C@H]2c2ccc(F)cc2)NC(=O)c2ccc(-n3ccnn3)cc2)CC1` [Compound 1, N-[(2S)-5-{[(1R, 2S)-2-(4-fluorophenyl)cyclopropyl]amino}-1-(4-methylpiperazin-1-yl)-1-oxopentan-2-yl]-4-(1H-1,2,3-triazol-1-yl)benzamide, bis-tosylate salt], for which the “effect on myelofibrosis symptoms” value in assay [1] (evaluable patients N=14, 85-day cycle) is listed as “profound effect on myelofibrosis symptoms”. The “number of patients with improved scores of fatigue” value in assay [1] (of the first 16 patients, within 14 days) worked out at 8. The “patients with a decrease in symptom score (MPN-10)” value in assay [1] (week 24, Phase 1/2a) is given as 89%. In addition, the “patients with a reduction of symptom score of ≥50%” value in assay [2] is listed as 25%.

The values are drawn from patent publication US20230000835A1, “LYSINE-SPECIFIC HISTONE DEMETHYLASE INHIBITORS FOR THE TREATMENT OF MYELOPROLIFERATIVE NEOPLASMS” (Imago Biosciences, Inc., priority 2019, published 2023).
